Experimental findings from patent publication US9573887B2, “Naphthalene derivative” (Daito Chemix Corporation, priority 2010, dated 2017) are described below.

Structures are written as SMILES. Where a name gives a salt, the structure may show the parent alone. Where only a bound is given, the exact number is not on record here.

This experiment deals with T1, Mouse VCP (Mus musculus, UniProt Q01853).
T1 construct: histidine tag (N); made in house; host or cells: Sf-9 insect cells (baculovirus vector pVL1392)
The experiment can be described thus: ATPase activity of purified His-tagged VCP, [γ-32P]ATP, liberated phosphate by liquid scintillation. The format is biochemical. In a few lines:
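N-terminally His-tagged mouse VCP, expressed in Sf-9 cells and nickel-purified, was incubated (500 ng) with 100 μM [γ-32P]ATP and test substance at various concentrations in pH 7.4 HEPES/KCl/MgCl2/DTT buffer, 37° C, 10 min. After TCA stop, released phosphate was molybdate-extracted into organic phase and scintillation-counted. IC50 fitted from concentration-response.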

[1] abbreviates: compounds of Examples, ATPase inhibitory activity, 500 ng VCP, 100 μM ATP, 37° C., 10 minutes.
[2] abbreviates: compounds of Comparative Examples, determined in the same manner as the Examples.

T1 sequence (Q01853 whole entry): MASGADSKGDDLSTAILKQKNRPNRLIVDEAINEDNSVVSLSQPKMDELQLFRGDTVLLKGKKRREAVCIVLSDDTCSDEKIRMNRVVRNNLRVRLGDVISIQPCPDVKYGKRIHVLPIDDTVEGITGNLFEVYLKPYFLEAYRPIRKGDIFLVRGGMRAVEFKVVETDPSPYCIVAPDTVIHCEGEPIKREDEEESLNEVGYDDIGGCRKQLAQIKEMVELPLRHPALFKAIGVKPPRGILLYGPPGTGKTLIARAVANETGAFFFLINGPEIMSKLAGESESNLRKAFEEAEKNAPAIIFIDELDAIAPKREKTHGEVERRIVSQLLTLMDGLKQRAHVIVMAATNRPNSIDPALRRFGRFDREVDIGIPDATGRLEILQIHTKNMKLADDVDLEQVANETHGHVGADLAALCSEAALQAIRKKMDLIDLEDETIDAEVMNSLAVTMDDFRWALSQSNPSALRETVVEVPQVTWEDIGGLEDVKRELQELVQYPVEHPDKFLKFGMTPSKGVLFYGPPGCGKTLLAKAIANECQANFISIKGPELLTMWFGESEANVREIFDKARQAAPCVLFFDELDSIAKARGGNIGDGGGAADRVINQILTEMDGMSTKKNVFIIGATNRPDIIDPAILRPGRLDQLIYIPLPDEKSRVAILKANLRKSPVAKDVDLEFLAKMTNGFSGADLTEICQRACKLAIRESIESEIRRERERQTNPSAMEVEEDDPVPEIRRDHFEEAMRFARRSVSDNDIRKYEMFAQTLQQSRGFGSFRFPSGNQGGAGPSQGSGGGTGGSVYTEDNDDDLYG

With `Nc1c(/N=N/c2ccc(-c3c(OCCCNC(=O)c4cccnc4Cl)ccc4c3sc3ccccc34)nc2)cc(S(=O)(=O)O)c2ccccc12` [Example 81, 4-amino-3-[6-(3-{3-[(2-chloropyridine-3-carbonyl)amino]propoxy}dibenzothiophene-4-yl)pyridine-3-ylazo]naphthalene-1-sulfonic acid sodium salt], under setting [1], the IC50 is 0.207 µM.
On the same count and under the same terms, the value for `Nc1c(/N=N/c2ccc(-c3cccc4ccccc34)nc2)cc(S(=O)(=O)O)c2ccccc12` [Example 38, 4-amino-3-(6-naphthalene-1-ylpyridine-3-ylazo)naphthalene-1-sulfonic acid sodium salt] was 0.234 µM; that for `Nc1c(/N=N/c2ccc(-c3cccc(Cl)c3)nc2)cc(S(=O)(=O)O)c2ccccc12` [Example 23, 4-amino-3-[6-(3-chlorophenyl)pyridine-3-ylazo]naphthalene-1-sulfonic acid sodium salt] was 0.324 µM.
On the same count and under the same terms, the value for `Cc1cc(/N=N/c2cc(S(=O)(=O)O)c3ccccc3c2N)cnc1-c1cccc2c1sc1ccccc12` [Example 85, 4-amino-3-(6-dibenzothiophene-4-yl-5-methylpyridine-3-ylazo)naphthalene-1-sulfonic acid sodium salt] was 1.05 µM; that for `COc1cc([N+](=O)[O-])ccc1/N=N/c1cc(S(=O)(=O)O)c2ccccc2c1N` [Example 121, 4-amino-3-(2-methoxy-4-nitrophenylazo)naphthalene-1-sulfonic acid sodium salt] was 2.56 µM; that for `Cc1ccc(-c2ccc(Cl)cc2)c(-c2ccc(/N=N/c3cc(S(=O)(=O)O)c4ccccc4c3N)cn2)c1` [Example 72, 4-amino-3-[6-(4′-chloro-4-methylbiphenyl-2-yl)pyridine-3-ylazo]naphthalene-1-sulfonic acid sodium salt] was 0.796 µM.
For `Nc1c(/N=N/c2ccc(-c3ccccc3-c3ccccc3)nc2)cc(S(N)(=O)=O)c2ccccc12` [Example 14, sodium salt], the half-maximal inhibitory concentration (IC50) under setting [2] was over 10 µM.
Still for that read-out and setting: the value for `Nc1ccc(/N=N/c2ccccc2)c2ccc(S(=O)(=O)O)cc12` [Example 2, sodium salt] was over 10 µM.
On to `Nc1c(/N=N/c2ccc(-c3ccccc3)nc2)cc(S(=O)(=O)O)c2ccccc12` [Example 7, 4-amino-3-(6-phenylpyridine-3-ylazo)naphthalene-1-sulfonic acid sodium salt], for which the IC50 under setting [1] was 0.229 µM.
The same measure, in the same setting: the same measure for `Nc1c(/N=N/c2ccc(F)cc2)cc(S(=O)(=O)O)c2ccccc12` [Example 102, 4-amino-3-(4-fluorophenylazo)naphthalene-1-sulfonic acid sodium salt]: 0.904 µM.
On the same count and under the same terms, the value for `Nc1c(/N=N/c2ccccc2Br)cc(S(=O)(=O)O)c2ccccc12` [Example 108, 4-amino-3-(2-bromophenylazo)naphthalene-1-sulfonic acid sodium salt] was 0.288 µM.
Still for that read-out and setting: the same measure for `COc1ccccc1-c1ccc(/N=N/c2cc(S(=O)(=O)O)c3ccccc3c2N)cn1` [Example 25, 4-amino-3-[6-(2-methoxyphenyl)pyridine-3-ylazo]naphthalene-1-sulfonic acid sodium salt]: 0.3 µM.
`Cc1ccc(-c2ccccc2)c(-c2ccc(/N=N/c3cc(S(=O)(=O)O)c4ccccc4c3N)cn2)c1` [Example 71, 4-amino-3-[6-(4-methylbiphenyl-2-yl)pyridine-3-ylazo]naphthalene-1-sulfonic acid sodium salt]: the half-maximal inhibitory concentration (IC50) under setting [1] worked out at 0.257 µM.
On the same count and under the same terms, the same measure for `Cc1ccc(F)c(-c2ccc(/N=N/c3cc(S(=O)(=O)O)c4ccccc4c3N)cn2)c1` [Example 59, 4-amino-3-[6-(2-fluoro-5-methylphenyl)pyridine-3-ylazo]naphthalene-1-sulfonic acid sodium salt]: 0.38 µM; for `Cc1cc(F)ccc1-c1ccc(/N=N/c2cc(S(=O)(=O)O)c3ccccc3c2N)cc1F` [Example 144, 4-amino-3-(2,4′-difluoro-2′-methyl-diphenyl-4-ylazo)naphthalene-1-sulfonic acid sodium salt]: 0.199 µM.
Still for that read-out and setting: the value for `Nc1c(/N=N/c2ccc(-c3ccc(C(=O)c4ccccc4)cc3)nc2)cc(S(=O)(=O)O)c2ccccc12` [Example 47, 4-amino-3-[6-(4-benzoylphenyl)pyridine-3-ylazo]naphthalene-1-sulfonic acid sodium salt] was 0.589 µM; that for `Nc1c(/N=N/c2ccc(-c3ccc(Cl)cc3Cl)nc2)cc(S(=O)(=O)O)c2ccccc12` [Example 19, 4-amino-3-[6-(2,4-dichlorophenyl)pyridine-3-ylazo]naphthalene-1-sulfonic acid sodium salt] was 0.178 µM.
Still for that read-out and setting: the value for `Cc1cc(-c2cccnc2)ncc1/N=N/c1cc(S(=O)(=O)O)c2ccccc2c1N` [Example 53, 4-amino-3-(4-methyl-[2,3′]bipyridinyl-5-ylazo)naphthalene-1-sulfonic acid sodium salt] was 1.15 µM; that for `Nc1c(/N=N/c2ccc(-c3cccnc3)nc2-c2cccnc2)cc(S(=O)(=O)O)c2ccccc12` [Example 54, 4-amino-3-([3,2′;6′,3″]terpyridine-3′-ylazo)naphthalene-1-sulfonic acid sodium salt] was 1.06 µM; that for `Nc1c(/N=N/c2ccccc2OCc2ccncc2)cc(S(=O)(=O)O)c2ccccc12` [Example 141, 4-amino-3-[2-(pyridine-4-ylmethoxy)phenylazo]naphthalene-1-sulfonic acid sodium salt] was 0.747 µM.
With `Cc1cccc(-c2ccc(/N=N/c3cc(S(=O)(=O)O)c4ccccc4c3N)cn2)c1C` [Example 33, 4-amino-3-[6-(2,3-dimethylphenyl)pyridine-3-ylazo]naphthalene-1-sulfonic acid sodium salt], under setting [1], the concentration for half-maximal inhibition (IC50) was found to be 0.301 µM.
Regarding `Nc1c(/N=N/c2ccc(F)cc2Cl)cc(S(=O)(=O)O)c2ccccc12` [Example 119, 4-amino-3-(2-chloro-4-fluorophenylazo)naphthalene-1-sulfonic acid sodium salt], the 50% inhibitory concentration (IC50) under setting [1] turned out to be 0.737 µM.
On the same count and under the same terms, the value for `Nc1c(/N=N/c2cccnc2)cc(S(=O)(=O)O)c2ccccc12` [Example 1, 4-amino-3-(pyridine-3-ylazo)naphthalene-1-sulfonic acid sodium salt] was 1.58 µM; that for `Nc1c(/N=N/c2ccccc2F)cc(S(=O)(=O)O)c2ccccc12` [Example 94, 4-amino-3-(2-fluorophenylazo)naphthalene-1-sulfonic acid sodium salt] was 1.11 µM.
The same measure, in the same setting: the same measure for `Nc1c(/N=N/c2ccc(-c3cccnc3)cc2)cc(S(=O)(=O)O)c2ccccc12` [Example 123, 4-amino-3-(4-pyridine-3-ylphenylazo)-1-naphthalenesulfonic acid sodium salt]: 0.274 µM; for `Nc1c(/N=N/c2ccc(-c3cccc(C(F)(F)F)c3)nc2)cc(S(=O)(=O)O)c2ccccc12` [Example 37, 4-amino-3-[6-(3-trifluoromethylphenyl)pyridine-3-ylazo]naphthalene-1-sulfonic acid sodium salt]: 0.726 µM.
Still for that read-out and setting: the value for `Nc1c(/N=N/c2ccc(-c3cccc4c3oc3ccccc34)nc2)cc(S(=O)(=O)O)c2ccccc12` [Example 39, 4-amino-3-(6-dibenzofuran-4-ylpyridine-3-ylazo)naphthalene-1-sulfonic acid sodium salt] was 0.754 µM; that for `Nc1c(/N=N/c2ccc(-c3c(OCc4cccnc4)ccc4c3sc3ccccc34)nc2)cc(S(=O)(=O)O)c2ccccc12` [Example 80, 4-amino-3-{6-″3-(pyridine-3-ylmethoxy)dibenzothiophene-4-yl]pyridine-3-ylazo}naphthalene-1-sulfonic acid sodium salt] was 0.329 µM.
Take `Nc1c(/N=N/c2ccc(C(=O)Nc3ccccc3)cc2)cc(S(=O)(=O)O)c2ccccc12` [Example 129, 4-amino-3-(4-phenylcarbamoylphenylazo)naphthalene-1-sulfonic acid sodium salt]: under setting [1], the half-inhibitory concentration (IC50) is 1.9 µM.
On the same count and under the same terms, the same measure for `Nc1c(/N=N/c2ccc(-c3ccc(C(F)(F)F)cc3)nc2)cc(S(=O)(=O)O)c2ccccc12` [Example 21, 4-amino-3-[6-(4-trifluoromethylphenyl)pyridine-3-ylazo]naphthalene-1-sulfonic acid sodium salt]: 0.445 µM.
